# Laboratory results from PMC8587999, “Assessment of the Activity of Decoquinate and Its Quinoline-O-Carbamate Derivatives against Toxoplasma gondii In Vitro and in Pregnant Mice Infected with T. gondii Oocysts” (Molecules, 2021).
# Read-outs that look alike come from different tables or passages of the source.
# Experiments:
# [1] = system: T. gondii β-gal tachyzoites; experiment: IC50 determination with T. gondii β-gal tachyzoites grown in HFF monolayers; assay type: cell-based, Toxoplasma gondii; settings: for IC50: Toxoplasma gondii
# Protocol: The efficacy of DCQ in vitro was determined using T. gondii β-gal constitutively expressing β-galactosidase grown in HFF monolayers. […] The low IC50 values and the low degree of cytotoxicity against HFF host cells in vitro encouraged us to examine the efficacy of oral treatment of CD1 mice infected with T. gondii oocysts with DCQ at 10 mg/kg/day for 5 days.
# Due to the negative effects of treatment with DCQ, we investigated the efficacy in vitro of the three DCQ derivatives RMB054, RMB055 and RMB060 (Figure 1) in comparison to DCQ. Different concentrations of DCQ and the derivatives in DMSO were added to HFF either concomitantly with infection of T. gondii-β-gal tachyzoites, or 3 h after infection. […] The corresponding dose-response curves are shown in Supplementary Materials Figure S1. The viability of uninfected HFF was not impaired by the compounds up to concentrations of 5 µM (DCQ and RMB054) or 10 µM (RMB055, RMB060) (Table 1).
# (§1) HFF cytotoxicity assessments and IC50 determinations using cultures of Tg-β-gal tachyzoites grown in HFF were carried out as described previously. IC50 values were calculated with the logit-log-transformation of the relative growth and subsequent regression analysis was done with the corresponding software tool contained in Microsoft Excel software package (Microsoft, Seattle, WA). For the long-term treatments, HFF grown in T25 culture flasks were infected with 5 × 10^5 TgMe49 tachyzoites, and after 4.5 h 0.5 μM DCQ, RMB054 or RMB060 were added. Infected cultures treated with the highest corresponding concentration of DMSO (0.5%) served as controls. Prolonged treatments for up to 24 days were carried out, with the addition of fresh medium containing the respective drug every 3–4 days. Cultures were inspected by light microscopy on a daily basis. On days 3, 6, 9, 13, 16, 20 and 24, the compound-containing medium was removed, and parasites were maintained without drug pressure until host cell lysis (plaque formation) was evident.
# [2] = system: human foreskin fibroblasts (HFF); experiment: HFF cytotoxicity assessment; assay type: cell-based; settings: for IC50: Homo sapiens, Fibroblast, uninfected HFF, no decline in viability over the concentration range
# Protocol: as §1
# [3] = Pregnancy interference test in non-infected BALB/c mice; assay type: in vivo; settings: for No. of Non-Pregnant Mice/No. of Mice / No. of Pregnant Mice/No. of Mice: non-infected BALB/c; for Litter Size: total pups per group
# Protocol: Eighteen female and 9 male BALB/c mice, all 8 weeks of age, were used. The females were oestrus-synchronized for 3 days by the Whitten effect and were mated by housing 2 females and 1 male for 72 h in one cage. Males were removed after mating and females were randomly assigned to 3 experimental groups of 6 mice each: DCQ; RMB060; placebo. On days 9–13 post-mating, DCQ and RMB060 were supplied at 10 mg/kg/day in 100 μL corn oil by oral gavage. The placebo group only received corn oil. Mice were observed and weighed on several days and on day 18, post-mating pregnant females were separated into single cages. […] Dams and pups were observed daily and data on fertility, litter size, neonatal and postnatal mortality was recorded for the following 2 weeks. All mice were euthanized in a chamber by isoflurane/CO2 inhalation.
# [4] = system: T. gondii Me49 tachyzoites; experiment: Long-term drug treatment of TgMe49-infected HFF in vitro; assay type: cell-based, Toxoplasma gondii
# Protocol: as §1, with “Prolonged treatments for up to 24 days were carried out, with the addition of fresh medium containing the respective drug every 3–4 days.” left out
# [5] = system: T. gondii Me49 tachyzoites; experiment: TEM of T. gondii Me49 tachyzoites cultured in HFF under drug treatment; assay type: cell-based, Toxoplasma gondii
# Protocol: For transmission electron microscopy (TEM), HFF grown in T25 culture flasks were infected with 10^7 TgMe49 tachyzoites and incubated for 3 h at 37 °C and 5% CO2. Subsequently, cultures were exposed to continuous treatment of 6h, 24 h, 48 h, and 72 h with 0.5 μM DCQ, RMB054 or RMB060, and 1 µM RMB055. Infected cultures treated with DMSO served as controls. TEM preparations were performed as described earlier. Samples were observed on a Philips CM 12 (Philips Research, Eindhoven, Holland) or a FEI Tecnai Spirit BioTwin TEM (TESCAN GmbH, Dormund, Germany), both operating at 80 kV.
# [6] = system: BAG1 (bradyzoite antigen 1) expression in T. gondii Me49; experiment: Immunofluorescence staining for BAG1 expression in TgMe49-infected HFF; assay type: cell-based, Toxoplasma gondii; settings: treatment for 48 h
# Protocol: For immunofluorescence microscopy, 4 × 10^4 HFF were grown on glass coverslips for 24 h to form a sub-confluent monolayer and were exposed to 1.2 × 10^5 TgMe49 tachyzoites during 4 h at 37 °C and 5% CO2. The medium was replaced and supplemented with 20 nM DCQ and RMB060, or medium containing DMSO as control. Cultures infected with TgPgSp1 (low passage number) served as positive control for BAG1 (bradyzoite antigen 1) expression. Infected cells were cultured for 16 h, 24 h, and 48 h and fixed and labelled for immunofluorescence staining as described previously. A polyclonal rabbit anti-BAG1 antiserum was applied at 1:200 dilution, followed by a goat-anti-rabbit fluorescein-isothiocyanate conjugate (1:300), the monoclonal mouse anti-TgSAG1 antibody was diluted (1:100), followed by goat anti-mouse conjugated to tetramethylrhodamine-isothiocyanate at 1:300. Subsequently, samples were mounted in H-1200 Vectashield mounting medium (Vector Laboratories, Burlingame, CA, USA) containing 4,6-diamidino-2-phenylindole and were viewed on a Nikon E80i fluorescence microscope (Tokyo, Japan). Processing of images was performed using Openlab 5.5.2 (Improvision, PerkinElmer, Waltham, MA, USA) and the ImageJ software, version 1.53 m.
# [7] = system: T. gondii; settings: cited from earlier work
# [8] = HFF vs T. gondii, compound applied prior to / concomitantly with infection
# [9] = Tg-β-gal in HFF, compound added 3 h post-infection, [upper, lower limit of 95% CI], read-out: IC50 T. gondii (nM) [LS, LI] Compound Added 3 h Post-infection
# [10] = Tg-β-gal in HFF, compound added prior to / concomitantly with infection, [upper, lower limit of 95% CI], read-out: IC50 T. gondii (nM) [LS, LI] Compound Added Prior to Infection
# [11] = short-term growth assays, added with infection or 3 h after, read-out: IC50 T. gondii, range depending on the time point of initiation of treatment
# [12] = 10 mg/kg/day oral, days 9–13 post-mating
Compound,"Selectivity Index [1, 8]","IC50 [1, 9]","IC50 [1, 10]","IC50 [1, 11]",Concentration up to which viability of uninfected HFF was not impaired [2],IC50 [2],"Interference in pregnancy [3, 12]","No. of Non-Pregnant Mice/No. of Mice [3, 12]","No. of Pregnant Mice/No. of Mice [3, 12]","Litter Size [3, 12]",Expression of the bradyzoite marker BAG1 [6],also measured
"CCCCCCCCCCOc1cc2c(O)c(C(=O)OCC)cnc2cc1OCC [DCQ, ethyl 6-decyloxy-7-ethoxy-4-oxo-1H-quinoline-3-carboxylate]",>4545,4.7 nM,1.1 nM,1.1 to 4.7 nM,5 µM,> 5000 nM,strong interference in pregnancy outcome,4/6,2/6,7,induced the expression of BAG1,"Neonatal Mortality ([3]; female, BALB/c, mouse, in vivo, po, 10 mg/kg/day): 0/7; Parasiticidal effect after long-term treatment ([4]; 500 nM, 52 days): no parasiticidal effect; Parasiticidal effect in long-term treatment assays ([4]; up to 500 nM per day for 24 days): not parasiticidal; Ultrastructural alterations of the parasite mitochondrion (TEM) ([5]; within 24 h): distinct alterations in the parasite mitochondrion; Effect of treatment of infected cultures, T. gondii RH strain ([7]; 240 nM): tissue cyst formation; IC50 ([7]; read-out: IC50, inhibition of T. gondii proliferation in vitro): 12 nM"
CCCCCCCCCCOc1cc2c(OC(=O)N3CCN(S(C)(=O)=O)C3=O)c(C(=O)OCC)cnc2cc1OCC [RMB060],">142,857",0.7 nM,0.07 nM,0.07 to 0.7 nM,10 µM,> 10000 nM,only minor interference in pregnancy,2/6,4/6,27,"expression of the bradyzoite marker BAG1 in the cytoplasm of some, but not all, parasites","Concentration that caused a complete growth inhibition in dose response assays ([1]; T. gondii tachyzoites in HFF): 500 nM; Selectivity Index ([1]; compound added to intracellular parasites at 3 h post-infection): > 14,000; Postnatal Mortality [3, 12]: 0/24; Neonatal Mortality ([3]; first 2 days post-partum, 10 mg/kg/day oral, days 9–13 post-mating): 3/27; Killing of tachyzoites after long-term exposure ([4]; 300 nM for 52 days): did not result in the complete killing of all tachyzoites; Concentration to which tachyzoites adapted, fold the IC50 ([4]; exposure for longer timespans, parasites resumed proliferation and formed lysis plaques): up to 4286 fold; Ultrastructural alterations of the parasite mitochondrion (TEM) ([5]; 500 nM for 6 h, treatment started 3 h after infection): mitochondrial matrix had a less electron dense appearance and dissolved cristae became evident; IC50 ([7]; read-out: previously reported IC50 against T. gondii): 1.1 nM"
